Experimental data published in ChEMBL document CHEMBL1150735, “Phytochemical and pharmacological investigation of the cardioactive constituents of the leaf of Dysoxylum lenticellare” (J Nat Prod, 1987).

Tests used:
[1] = Cardiovascular activity in spontaneously beating rat right atria assessed as change in rate of contraction at 80 uM by microdynameter relative to control; type: functional; conditions: Right cardiac atrium
[2] = Cardiovascular activity in spontaneously beating rat right atria assessed as change in amplitude of contraction at 80 uM by microdynameter relative to control; type: functional; conditions: Right cardiac atrium
[3] = Solubility in water; type: physicochemical; conditions: buffer

| solubility [3] | Structure (SMILES) | Activity [1] | Activity [2] |
| --- | --- | --- | --- |
| – | COc1cc2c(cc1OC)[C@@H](CCc1ccc3c(c1)OCO3)N(C)CC2 | -6.4% | 11.8% |
| – | COc1ccc(CC[C@@H]2c3cc(OC)c(OC)cc3CCN2C)cc1OC | -6.7% | 16.3% |
| – | CO[C@H]1CC=C2CCN3CCC(O)c4cc5c(cc4[C@]23C1)OCO5 (stereo partly drawn) | -6% | 11.5% |
| Insoluble | COc1cc2c(cc1OC)-c1cc3c(cc1CCCN(C)CC2)OCO3 [DYSAZECINE] | – | – |
| Insoluble | C=C1C[C@]23CC[C@@H]4C(C)(C)CCC[C@@]4(C)[C@@H]2CC[C@H]1C3 [PHYLLOCLADENE] | – | – |
